Reference: patent US6369109B1, “Betulinic acid and derivatives thereof useful for the treatment of neuroectodermal tumor” (Deutsches Krebsforschungszentrum Stiftung des Offentlichen …, priority 1998, dated 2002)
“Also recorded” adds a separate entry of the source.

What was measured:
[1] = test system: p53 protein in SH-EP neuroblastoma cells; assay: Western blot of p53 accumulation; format: cell-based, human; conditions: 10 μg/ml betulinic acid; 0.5 μg/ml doxorubicin 12 h; FIG. 5D
Experimental: Cells were lysed for 30 min at 4° C. in PBS with 0.5% Triton X (Serva, Heidelberg, Germany) and 1 mM phenylmethylsulfonyl fluoride (Sigma, Deisenhofen, Germany) followed by high-speed centrifugation. Membrane proteins were eluted in buffer containing 0.1 M glycine. PH 3.0 and 1.5 M Tris, pH 8.8. Protein concentration was assayed using bicinchoninic acid (Pierce Chemical Co., Rockford, Ill.). Forty μg of protein per lane were separated by 12% SDS-PAGE and electroblotted onto nitrocellulose (Amersham, Braunschweig, Germany). Equal protein loading was controlled by Ponceau red staining of membranes. After blocking for 1 h in PBS supplemented with 2% BSA (Sigma) and 0.1% Tween 20 (Sigma), immunodetection of FLICE, CPP32, PARP, Bax, Bcl-x, Bcl-2, and p53 protein was done using mouse anti-FLICE monoclonal antibody C15 (1:5 dilution of hybridoma supernatant), mouse anti-CPP32 monoclonal antibody (1:1000, Transduction Laboratories, Lexington, KY), rabbit anti-PARP polyclonal antibody (1:10000, Enzyme Systems Products), rabbit anti-Bax polyclonal antibody (1:500, Calbiochem, Bad Soden, Germany), rabbit anti-Bcl-x polyclonal antibody (1:1000, Santa Cruz Biotechnology, Santa Cruz, Calif.), mouse anti-p53 monoclonal antibody (1:10000, Transduction Laboratories), and goat anti-mouse 1gG or goat antirabbit IgG (1:5000, Santa Cruz Biotechnology), ECL (Amersham) was used for detection. […]

[2] = test system: cytochrome c in SHEP cells; assay: Drug-induced release of cyt c from mitochondria in cells (Western blot); format: cell-based, human; conditions: 0.5 μg/ml Doxo or 10 μg/ml Bet A; FIG. 16A
Experimental: Cells were lysed for 30 mm at 4° C. in PBS with 0.5% Triton X (Serva, Heidelberg, Germany) and 1 mM PMSF (Sigma, Deisenhofen, Germany) followed by high-speed centrifugation. Membrane proteins were eluted in buffer containing 0.1 M glycine, pH 3.0 and 1.5 M Tris, pH 8.8. Protein concentration was assayed using bicinchoninic acid (Pierce, Rockford, Ill.). 40 μg protein per lane was separated by 12% or 15% SDS-PAGE and electroblotted onto nitrocellulose (Amersham, Braunschweig, Germany). Equal protein loading was controlled by Ponceau red staining of membranes. […]
For isolation of mitochondria, cells (3×10^8 per sample) were washed twice with ice-cold PBS and resuspended with five volumes of buffer A (50 mM Tris buffer, 1 mM EGTA, 5 mM 2-mercaptoethanol, 0.2% BSA, 10 mM KH2PO4, pH 7.6, 0.4 M sucrose) and allowed to swell on ice for 20 min. […] The protein concentration of mitochondria or cytosolic extracts was determined by the Bradford method. […]

COc1cccc2c1C(=O)c1c(O)c3c(c(O)c1C2=O)C[C@@](O)(C(=O)CO)C[C@@H]3O[C@H]1C[C@H](N)[C@H](O)[C@H](C)O1 [doxorubicin]
accumulation of p53 protein [1]: induces the accumulation of p53 protein; also recorded: strongly increased
mitochondrial cytochrome c levels after stimulation [2]: mitochondrial cytochrome c levels declined
